Earlier results, collected in US20120093738A1, “TASTE-MASKED ORAL FORMULATIONS OF INFLUENZA ANTIVIRALS” (Rubicon Research Private Limited, priority 2009, published 2012).

Settings: reconstituted multi-dose suspensions

CCOC(=O)C1=C[C@@H](OC(CC)CC)[C@H](NC(C)=O)[C@@H](N)C1 [oseltamivir phosphate]
time within which the suspension needs to be used: ≤ 10 days
